Each structure is given as a SMILES string.

Holding throughout (test): Well diffusion agar method, inhibition zone
Format in all cases: cell-based
For orientation: In agar diffusion tests the substance spreads into inoculated agar from a disc or well.

Assay [1] relates to Aspergillus flavus ATCC 16883. The text has this:
(§1) The ability to inhibit the growth of Gram-positive and Gram-negative bacteria, yeasts and filamentous fungi was observed using an overlay method (S. R. Connell, D. M. Tracz, K. H. Nierhaus, D. E. Taylor, Antimicrob. Agents Chemother. 47, 3675 (2003), incorporated herein by reference in its entirety).
(§2) The common pathogenic and food spoilage microorganisms were selected for their relevance in bakery products and other food: the gram-positive bacteria: Bacillus subtilits NRRL-B-4219, Staphylococcus aureus ATCC 6538, Enterococcus faecalis ATCC 19433; the gram negative bacteria: Escherichia coli ATCC 25922, Pseudomonas aeruginosa ATCC 9027, Proteus sp.; yeasts, such as Candida albicans ATCC 10231; and fungi: Aspergillus niger NRRL 2766 (equivalent to ATCC 16888), and Aspergillus flavus ATCC 16883. The bacteria were slanted on nutrient agar (Merck, Darmstadt, Germany), yeast was slanted and mentioned on Sabaroud's agar medium (Lab M., Bury, Lancashire, UK) and the fungi was slanted and mentioned on the potato Dextrose Agar medium (Lab M Limited, Bury, Lancashire, UK). Mueller-Hinton agar (Lab M., Bury, Lancashire, UK) following the manufacturer's instructions was used for the assay.
(§3) All compounds were dissolved in dimethyl sulfoxide (RFCL Limited, New Delhi, India) at 50 μg/mL concentration as shown in Table 4 in comparison with different standard antibiotics. Antibiotic discs of Streptomycin (S) (10 μg), Oxytetracycline (T) (30 μg), and Tetracyciline (TE) (30 μg) were used as positive controls for bacteria. Neomycin (N) (30 μg), was used for fungi.
(§4) The antibacterial screening was performed with the well diffusion agar method (S. T. Williams, M. Goodfellow, E. M. H. Wellington, J. C. Vickers, G. Alderson, P. H. A. Sneath, S. M. J. Sackins, A. M. Mortimer, J. Gen. Microbiol. 129, 1815(1983); and B. Bonev, J. Hooper, J. Parisot, J. Antimicrob. Chemother., 61, 1295(2008), each incorporated herein by reference in their entirety). The organisms were streaked in radial patterns on the agar plates. Plates were incubated under aerobic conditions at 37° C. and 28° C. for 24 h and 48 h for bacteria and fungi, respectively. All prepared solutions were treated under the same conditions under the same incubated plates. All tests were performed in triplicate. Plates were examined for evidence of antimicrobial activities, represented by a zone of inhibition of the microorganism's growth around the holes, and diameters of clear zones were expressed in millimeters (R. Cruickshank, J. P. Duguid, B. P. Marmion, R. H. A. Swain, The practice of medicinal microbiology. In Medical Microbiology, 12th ed.; Churchill Livingstone: Edinburgh, UK, Volume 11, pp. 196-202 (1975), incorporated herein by reference in its entirety).

Assay [2] concerns Aspergillus niger NRRL 2766.
Excerpt: as §1, §2, §3, §4

Assay [3] concerns Bacillus subtilits NRRL-B-4219.
Excerpt: as §1, §2, §3, §4

For assay [4], the system named is Candida albicans ATCC 10231.
Excerpt: as §1, §2, §3, §4

Assay [5] deals with Enterococcus faecalis ATCC 19433.
Excerpt: as §1, §2, §3, §4

Assay [6] relates to Escherichia coli ATCC 25922.
Excerpt: as §1, §2, §3, §4

The next assay deals with Proteus sp.
Excerpt: as §1, §2, §3, §4

For assay [7], the system named is Pseudomonas aeruginosa ATCC 9027.
Excerpt: as §1, §2, §3, §4

In assay [8] the test system is Staphylococcus aureus ATCC 6538.
Excerpt: as §1, §2, §3, §4

Turning to `CN(C)[C@@H]1C(O)=C(C(N)=O)C(=O)[C@@]2(O)C(O)=C3C(=O)c4c(O)cccc4[C@@](C)(O)[C@H]3[C@H](O)[C@@H]12` [T*, Oxytetracycline], the “Inhibition zone, A. flavus” value in [1] (standard antibiotic disc 30 μg) is 0 mm. Further, the “Inhibition zone, A. niger” value in assay [2] (standard antibiotic disc 30 μg) is recorded as 0 mm. Also, the “Inhibition zone, B. subtilits” value in assay [3] (standard antibiotic disc 30 μg) was 30 mm. Further, in assay [4] (standard antibiotic disc 30 μg), the “Inhibition zone, C. albicans” value was determined as 0 mm. Moreover, in [5] (standard antibiotic disc 30 μg), the “Inhibition zone, Ent. faecalis” value worked out at 0 mm. Besides, the “Inhibition zone, E. coli” value in [6] (standard antibiotic disc 30 μg) amounted to 0 mm. The “Inhibition zone, Proteus sp.” value with Proteus sp. (standard antibiotic disc 30 μg) amounted to 0 mm. Besides, in [7] (standard antibiotic disc 30 μg), the “Inhibition zone, P. aeruginosa” value worked out at 0 mm. The “Inhibition zone, S. aureus” value in assay [8] (standard antibiotic disc 30 μg) was 0 mm.

As to `NC[C@@H]1O[C@H](O[C@H]2[C@@H](O)[C@H](O[C@@H]3[C@@H](O)[C@H](N)C[C@H](N)[C@H]3O[C@H]3O[C@H](CN)[C@@H](O)[C@H](O)[C@H]3N)O[C@@H]2CO)[C@H](N)[C@@H](O)[C@@H]1O` [N*, Neomycin], the “Inhibition zone, A. flavus” value in assay [1] (standard antibiotic disc 30 μg) turned out to be 14 mm. Further, the “Inhibition zone, A. niger” value in assay [2] (standard antibiotic disc 30 μg) worked out at 16 mm. The “Inhibition zone, B. subtilits” value in [3] (standard antibiotic disc 30 μg) was found to be 0 mm. Further, the “Inhibition zone, C. albicans” value in [4] (standard antibiotic disc 30 μg) turned out to be 0 mm. Besides, in assay [5] (standard antibiotic disc 30 μg), the “Inhibition zone, Ent. faecalis” value is recorded as 0 mm. Besides, the “Inhibition zone, E. coli” value in assay [6] (standard antibiotic disc 30 μg) is listed as 0 mm. Further, the “Inhibition zone, Proteus sp.” value with Proteus sp. (standard antibiotic disc 30 μg) turned out to be 0 mm. Moreover, the “Inhibition zone, P. aeruginosa” value in assay [7] (standard antibiotic disc 30 μg) is 0 mm. In addition, the “Inhibition zone, S. aureus” value in [8] (standard antibiotic disc 30 μg) came out at 0 mm.

Turning to `CN(C)[C@@H]1C(O)=C(C(N)=O)C(=O)[C@@]2(O)C(O)=C3C(=O)c4c(O)cccc4[C@@](C)(O)[C@H]3C[C@@H]12` [TE*, Tetracyciline], the “Inhibition zone, A. flavus” value in [1] (standard antibiotic disc 30 μg) was determined as 14 mm. In assay [2] (standard antibiotic disc 30 μg), the “Inhibition zone, A. niger” value was 16 mm. In addition, the “Inhibition zone, B. subtilits” value in assay [3] (standard antibiotic disc 30 μg) came to 10 mm. Moreover, in [4] (standard antibiotic disc 30 μg), the “Inhibition zone, C. albicans” value came to 0 mm. The “Inhibition zone, Ent. faecalis” value in assay [5] (standard antibiotic disc 30 μg) came out at 0 mm. In addition, the “Inhibition zone, E. coli” value in assay [6] (standard antibiotic disc 30 μg) is 0 mm. The “Inhibition zone, Proteus sp.” value in the assay on Proteus sp. (standard antibiotic disc 30 μg) came out at 0 mm. Also, the “Inhibition zone, P. aeruginosa” value in assay [7] (standard antibiotic disc 30 μg) was determined as 0 mm. Further, in assay [8] (standard antibiotic disc 30 μg), the “Inhibition zone, S. aureus” value was 0 mm.

For `[H]/N=C(/N)N[C@H]1[C@H](O)[C@@H](O)[C@H](O[C@@H]2O[C@@H](C)[C@](O)(C=O)[C@H]2O[C@@H]2O[C@@H](CO)[C@H](O)[C@@H](O)[C@@H]2NC)[C@@H](N/C(N)=N\[H])[C@@H]1O` (relative stereo) [S*, Streptomycin], the “Inhibition zone, A. flavus” value in assay [1] (standard antibiotic disc 10 μg) amounted to 0 mm. Besides, the “Inhibition zone, A. niger” value in assay [2] (standard antibiotic disc 10 μg) was found to be 0 mm. Further, in assay [3] (standard antibiotic disc 10 μg), the “Inhibition zone, B. subtilits” value is listed as 14 mm. Moreover, the “Inhibition zone, C. albicans” value in assay [4] (standard antibiotic disc 10 μg) stood at 12 mm. For the same compound, the “Inhibition zone, Ent. faecalis” value in assay [5] (standard antibiotic disc 10 μg) came to 0 mm. For the same compound, the “Inhibition zone, E. coli” value in assay [6] (standard antibiotic disc 10 μg) is recorded as 0 mm. The “Inhibition zone, Proteus sp.” value with Proteus sp. (standard antibiotic disc 10 μg) amounted to 0 mm. Moreover, in assay [7] (standard antibiotic disc 10 μg), the “Inhibition zone, P. aeruginosa” value came out at 0 mm. Besides, in assay [8] (standard antibiotic disc 10 μg), the “Inhibition zone, S. aureus” value worked out at 0 mm.

Values taken from patent US10266510B2, “Antimicrobial and cytotoxic compounds and methods for treating cancer, a bacterial infection, and/or a fungal infection” (King Abdulaziz University, priority 2017, dated 2019).
